Patent US20040110731A1, “Photodynamic therapy for the treatment of non-melanoma skin cancer” (priority 2002, published 2004)

Experiments:
[1] = Verteporfin PDT in patients, physician visual grading of cosmetic outcome of treated sites (color, profile, texture); assay type: in vivo, human; conditions: 14 mg/m^2 BPD-MA IV
Procedure: (§1) Visudyne^1 was diluted to 30 ml with 5% dextrose in water. This solution was then administered intravenously by a ten minute infusion to fifty-four patients having multiple non-melanoma skin tumors. The final concentration of BPD-MA administered was 14 mg per m^2 of body surface area. The body surface area was calculated by taking the square root of the […] of (height (cm)×weight (kg))÷3600. ^1 available from Movartis Opthalmics, Duluth, Ga. 30097, USA.
(§2) One to three hours after the start of drug infusion the patients either had their tumors treated with a light dose of 60 or 120 J/cm^2 (as comparative examples) or with a light dose of 180 J/cm^2 according to the invention. The light doses were all of red (688 nm) LED light with a fluence rate of 200 mW/cm^2. A total of 421 tumors were treated. 194 received 60 J/cm^2, 117 received 120 J/cm^2, and 110 received 180 J/cm^2.
(§3) The efficacy of the treatment and the cosmetic outcome were assessed at 6 months and 24 months from the start of treatment. As a measure of efficacy, each treatment site was visually assessed by a physician to see if it was tumor free. The percentage of treatment sites that were judged to be free of tumors is shown in Table 1 (Clinical Complete Response). The treatment sites were also visually graded by the physician to assess the Cosmetic Outcome. Each tumor site was graded as an excellent, good, satisfactory, or less than satisfactory based on the color, profile, and texture of each treated site.

[2] = system: multiple non-melanoma skin tumors; assay: Verteporfin PDT in patients, visual assessment of treatment sites for clinical complete response (tumor free); assay type: in vivo, human; conditions: for Clinical Complete Response (percentage of treatment sites judged free of tumors): 14 mg/m^2 BPD-MA IV
Procedure: as §1, §2
Tumors were examined for clinical response after 3 months.
as §3

[3] = system: non-melanoma skin cancers; conditions: cited from earlier work
[4] = 6 months, light dose 60 J/cm^2 (comparative), 688 nm
[5] = 6 months, light dose 120 J/cm^2 (comparative), 688 nm
[6] = 6 months, light dose 180 J/cm^2, 688 nm
[7] = 24 months, light dose 60 J/cm^2 (comparative), 688 nm
[8] = 24 months, light dose 120 J/cm^2 (comparative), 688 nm
[9] = 24 months, light dose 180 J/cm^2, 688 nm

Tumor Cosmetic Outcome (percentage of treatment sites judged satisfactory or better) [1, 4]: 90.6%
Tumor Cosmetic Outcome (percentage of treatment sites judged satisfactory or better) [1, 5]: 87.5%
Tumor Cosmetic Outcome (percentage of treatment sites judged satisfactory or better) [1, 6]: 64.8%
Tumor Cosmetic Outcome (percentage of treatment sites judged satisfactory or better) [1, 7]: 91.8%
Tumor Cosmetic Outcome (percentage of treatment sites judged satisfactory or better) [1, 8]: 76.4%
Tumor Cosmetic Outcome (percentage of treatment sites judged satisfactory or better) [1, 9]: 85.5%
Substance: benzoporphyrin derivative monoacid A ring [Visudyne]
Clinical response of tumors ([2]; 3 months, tumors on six patients of the comparative 60 J/cm^2 group): no response
Clinical Complete Response (percentage of treatment sites judged free of tumors) [2, 4]: 78.3%
Clinical Complete Response (percentage of treatment sites judged free of tumors) [2, 5]: 88.5%
Clinical Complete Response (percentage of treatment sites judged free of tumors) [2, 6]: 98.0%
Clinical Complete Response (percentage of treatment sites judged free of tumors) [2, 7]: 51.3%
Clinical Complete Response (percentage of treatment sites judged free of tumors) [2, 8]: 78.6%
Clinical Complete Response (percentage of treatment sites judged free of tumors) [2, 9]: 95.4%
Clinical response ([3]; 60 J/cm^2): relatively poor clinical response
Cosmetic outcome ([3]; 180 J/cm^2): relatively poor cosmetic outcome
Cosmetic results with tumor clearing ([3]; light fluence 120 J/cm^2): good to excellent
